One data set deals with colon tumors. Conditions: animals; cited from earlier work.
In another data set the test system is colon polyps. Conditions: humans; cited from earlier work.
The test system of data set [1] is carcinogen-induced epidermoid carcinomas. Conditions: in vivo; cited from earlier work.
In a further data set the test system is oral carcinoma cell. Conditions: in at least some cases; cited from earlier work.
For a further data set, the system named is human oral cancer cells. The settings on record: in vitro; cited from earlier work.
Data set [2] is described as follows: Color matching with COLORCURVE swatches. The data set is classed as physicochemical. Conditions: cream A, same set of samples as Table I.
From the text: In the COLORCURVE system, colors are scaled on a 3-dimensional scheme. One dimension, which for convenience here will be termed the vertical dimension, is value, defined more or less according to Munsell (op cit). The two dimensions of each plane are hue and intensity or saturation. The "hues" of the COLORCURVE system are the four primary colors of visible light: red, yellow, green and blue. Like the COLOR-AID system, the COLORCURVE system provides coded swatches for color matching. Each coded color in the COLORCURVE system is defined by light reflectance values, tristimulus values, and L*a*b* values, these being colorimetric parameters known in the art.
In the COLORCURVE code, the first number specifies the level, that is, the value of the equivalent gray tone; the level numbers increase from darker values to lighter values. For example, Level 55 colors are paler than Level 50 colors, which in turn are paler than Level 45 colors. The second and third codes each consist of a letter followed by a single-digit number. The letter identifies one of four hues (R-red, Y-yellow, B-blue, and G-green, these being the four "primary" colors in light), and the number describes the intensity of the hue. Thus, L40 R3 Y2 specifies value Level 40, red hue saturation level of 3, and yellow hue saturation level of 2 (where increasing numbers from 1 to 8 designate increasing saturation levels). […]
Data set [3] in a line: Aqueous solution of carotenoid with cyclodextrin, visible precipitate. It counts as physicochemical.
Method: Twenty milligrams of β carotene is mixed with eighty milligrams (abbreviated "mg" hereinafter) of β cyclodextrin. The mixture is then added to 0.5 milliliters (hereinafter abbreviated "ml") of a buffered saline solution, and thoroughly mixed.
The nature of data set [4]: Comparative solubility in skin cream with different solubilization mixtures. The settings on record: summary of Tables V and VI. The data set is classed as physicochemical.
From the text: The relative scale used was from 1 = completely nonsoluble, precipitate
formed, to 10 = completely soluble, no precipitate or suspension visible.
In all cases the carotene was mixed with Solvent #1 prior to mixing with
Solvent #2. This mixture was in turn combined with LUBRIDERM skin cream,
Data set [5] concerns DMBA induced squamous cell carcinoma. Conditions: topical […] solution in mineral oil; cited from earlier work.
Data set [6] in a line: Color and texture of prepared compositions and creams. It counts as physicochemical.
Method: 50 milligrams of β carotene were added to 50 milligrams of vitamin E (as DL-alpha tocopherol acid succinate). To this mixture were added 50 milligrams of β cyclodextrin and 50 milligrams of gelatin derived from bovine skin (bloom 225, type III). […] Next, 1 milliliter of D20 and 1 milliliter of glycerine were added, in that order.
The mixture #1 was then added to 1 milliter of a commercial skin cream, LUBRIDERM, which contains water, mineral oil, petrolatum, sorbitol, lanolin, lanolin alcohol, triethanolamine, cetyl alcohol, butylparaben, methylparaben, propylparaben, and sodium chloride, in order of descending amount.
50 milligrams of β carotene were mixed thoroughly with 50 milligrams of β cyclodextrin. One milliliter of distilled H2 O (d-H2 O) was added to the mixture of carotene and cyclodextrin. […] Fifty milligrams of Vitamin E succinate (crystalline) were then added. […] Next, 1 milliliter of glycerine was added, followed by 150 milligrams of gelatin. […] The same skin cream base was added to composition 2 as in example 1, in the same amount.
Glycerine (1 milliliter) and/or gelatin (50 mg) were added to the mixture, followed by 1 milliliter of LUBRIDERM brand skin cream.
Data set [7] is described as follows: Absorbance loss at 450 nm of β-carotene/alpha-cyclodextrin with cysteine after 21 days. Conditions: After 21 days at ambient conditions; UV-Vis. The data set is classed as physicochemical.
Method: As further described below, various amounts of cysteine were used. Spectroscopic measurements were then made of Samples C, D, E, F (Table VIII), and of a sample consisting of uncomplexed beta-carotene, which was used as a control group.
The results were measured as percent of absorbance loss at 450 nm. The percent of absorbance loss measures the intensity of absorbance. In turn, intensity of absorbance is directly correlated to oxidation and decomposition of beta-carotene.
Data set [8] is described as follows: Color matching with COLOR-AID swatchbook. It counts as physicochemical. Conditions: 1% β carotene, ⊕ darker, ⊖ paler than swatch.
Method: Creams containing cyclodextrin-complexed β carotene and uncomplexed β carotene were prepared by adding the respective carotene preparation to one or more of several different commercially available creams. The commercial creams used include LUBRIDERM, NOXZEMA, POND'S hand cream, POND'S Cold Cream, and NIVEA moisturizing cream. The amount of complex needed to achieve a β carotene content of 1% by weight was calculated using the measurement of percent loading for the particular complex, and this amount was added to the cream as purchased. Control samples contained 1% uncomplexed β carotene by weight of the cream. […] Since the amount of β carotene by weight is the same in all the cream samples, including those to which β carotene was added in pure form and those to which the β carotene was added in the form of β carotene/cyclodextrin complex, differences in color intensity and hue are not ascribable to a simple dilution effect.
The color differences among complexed and uncomplexed β carotene and among creams containing complexed vs. uncomplexed β carotene are here characterized according to the COLOR-AID swatchbook.
In the present case, color matching was performed under fluorescent lighting of the full-spectrum type.
For data set [9] the following is noted: visual.
Method: Creams containing cyclodextrin-complexed β carotene and uncomplexed β carotene were prepared by adding the respective carotene preparation to one or more of several different commercially available creams. The commercial creams used include LUBRIDERM, NOXZEMA, POND'S hand cream, POND'S Cold Cream, and NIVEA moisturizing cream. The amount of complex needed to achieve a β carotene content of 1% by weight was calculated using the measurement of percent loading for the particular complex, and this amount was added to the cream as purchased. Control samples contained 1% uncomplexed β carotene by weight of the cream.

“Also recorded” adds a separate entry of the source.

As to `CC1=C(CC(=O)O)c2cc(F)ccc2/C1=C\c1ccc([S+](C)[O-])cc1` (stereo not drawn) [Sulindac, cis-5-fluoro-2-methyl-1-[p-(methyl-sulfinyl)benzylidene]indene-3-acetic acid], the “growth of colon tumors” value in the data set with colon tumors is given as “inhibits growth of colon tumors in animals”. For the same compound, in the data set with colon polyps, the “regression of colon polyps” value is “cause regression of colon polyps in humans”.

In the case of `Cc1c(C)c2c(c(C)c1O)CCC(C)(CCCC(C)CCCC(C)CCCC(C)C)O2` (stereo not drawn) [Vitamin E (alpha tocopherol), alpha tocopherol], in [1], the “inhibition of development of carcinogen-induced epidermoid carcinomas” value is “inhibit the development of carcinogen-induced epidermoid carcinomas, and in some cases to completely prevent their growth”.

Turning to `CC1=C(/C=C/C(C)=C/C=C/C(C)=C/C=C/C=C(C)/C=C/C=C(C)/C=C/C2=C(C)CCCC2(C)C)C(C)(C)CCC1` [β-carotene], in the data set with oral carcinoma cell, the “tumor inhibitory effects vs Vitamin A” value is “superior to Vitamin A in its tumor inhibitory effects”. Moreover, in the data set with human oral cancer cells, the “inhibition of human oral cancer cells” value is listed as “inhibit human oral cancer cells in vitro” and the “selective killing of tumor cells over normal cells” value is “preferentially kill tumor cells over normal (non-tumor) cells”. The “COLORCURVE code, A” value in [2] was “L50 R3YS; also recorded: L55 R3YS”. In addition, in [3] (20 mg β carotene with 80 mg β cyclodextrin, 0.5 ml buffered saline into 100 ml distilled water), the “visible precipitate in aqueous solution” value is “clear solution with no visible precipitate”. Also, the “visible precipitate in aqueous solution” value in [3] (lesser amount or no cyclodextrin) is reported as “red-brown precipitate”. The “effect of mixing with βCD on solubility in LUBRIDERM skin cream” value in data set [4] is recorded as “significantly increases its solubility”. Further, the “number and sizes of tumors” value in data set [5] was “reduced the number and sizes of tumors”. Also, in data set [6] (final cream), the “texture of composition or cream” value was “does not produce undesirable color changes or grainy textures”. Besides, the “appearance of skin cream with β carotene (previous attempts)” value in data set [6] (uncomplexed β carotene) is given as “unpleasant mustard-like appearance”. Further, in [7], the “% Abs. Loss (at 450 nm)” value is 42%. The “COLOR-AID code, LUBRIDERM” value in data set [8] is listed as “RO-P2-1⊕”. In addition, the “COLOR-AID code, PONDS” value in [8] (PONDS hand/skin cream) is reported as “O-S1⊕”. For the same compound, in [9], the color of powder entry is “deep, red to orange-red color”.

Values taken from patent US5834445A, “Process for preparing decolorized carotenoid-cyclodextrin complexes” (priority 1995, dated 1998).
